Results: US6812212B2, “Assessment of oxidant stress in vitro and in vivo” (priority 2000, dated 2004)
Each block holds one molecule with its values, some of them ahead of it.

What was measured:
[1] = test system: cytochrome c; test: Nitration and polymerization of cytochrome c by NO donor during prostaglandin H2 synthase form 2 metabolism of arachidonic acid; type: biochemical; conditions: 300 μM DETA NONOate with ovine PGHS-2 and arachidonic acid (590 μM), 37° C., 30 minutes
Description: Western blot analysis was carried out with monoclonal antibodies produced against nitrotyrosine using the alkaline phosphatase system;
Reaction mixture in 100 mM phosphate buffer, pH 7.4, (total volume, 200 μl) was incubated at 37° C. for 30 minutes. The reaction mixture contained a combination of cytochrome c (40 μg), ovine prostaglandin H2 synthase form 2 (104 units), arachidonic acid (590 μM), epinephrine (31 μg), hematin (1 μM), and DETA NONOate, an NO donor, (300 μM) as indicated in FIG. 2. After incubation, the proteins were separated by SDS-PAGE followed by Western blot analysis with an alkaline phosphatase system using monoclonal antibodies produced against nitrotyrosine.

[2] = target: T1, prostaglandin H2 synthase form 2 (Ovis aries, UniProt P79208); test: Peroxynitrite-induced nitration of prostaglandin H2 synthase form 2, Western blot with anti-nitrotyrosine antibodies; type: biochemical, sheep; conditions: for nitration of tyrosine residues of prostaglandin H2 synthase form 2 in the presence of reducing agent: 16 μg sheep PGHS-2, 450 μM peroxynitrite, 31 μM GSH
T1 construct: Prostaglandin H2 synthase form 2, isolated from sheep placenta, contained nitrated tyrosine residues; purchased Cayman Co. (Ann Arbor, Mich.); host or cells: sheep placenta (tissue-purified)
T1 sequence (P79208 17-603): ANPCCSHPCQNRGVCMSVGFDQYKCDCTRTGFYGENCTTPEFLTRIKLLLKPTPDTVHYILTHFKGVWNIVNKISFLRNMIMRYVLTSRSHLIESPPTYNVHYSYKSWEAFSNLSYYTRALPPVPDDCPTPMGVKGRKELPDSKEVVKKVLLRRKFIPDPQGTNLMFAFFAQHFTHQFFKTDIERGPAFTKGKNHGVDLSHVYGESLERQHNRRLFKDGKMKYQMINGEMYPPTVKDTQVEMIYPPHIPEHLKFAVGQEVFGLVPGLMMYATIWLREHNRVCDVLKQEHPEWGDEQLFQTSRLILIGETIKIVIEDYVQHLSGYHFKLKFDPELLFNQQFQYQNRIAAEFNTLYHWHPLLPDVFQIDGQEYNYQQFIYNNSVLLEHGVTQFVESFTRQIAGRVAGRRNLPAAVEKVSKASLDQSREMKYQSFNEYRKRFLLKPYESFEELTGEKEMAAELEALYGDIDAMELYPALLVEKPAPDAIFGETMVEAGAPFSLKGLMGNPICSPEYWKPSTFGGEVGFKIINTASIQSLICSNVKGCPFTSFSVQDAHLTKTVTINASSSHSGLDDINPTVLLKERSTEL
Description: (§1) SDS-PAGE was carried out on 10% or 15% gels, according to Laemmli (18), with or without the addition of β-mercaptoethanol in gel loading buffer before heat denaturization of proteins. The separated proteins were electroblotted onto a […] membrane and Western blot analyses were carried out using alkaline phosphatase system as previously described (19,20). Visualization of bands was accomplished by incubation with a mixture of 5-bromo-4-chloro-3-indolylphosphatate p-toluidine and nitrobluetetrazolium. Western blot analyses were also carried out using horseradish peroxidase or alkaline phosphatase system with […] substrates.

[3] = target: T1, prostaglandin H2 synthase form 2; test: Peroxynitrite-induced dimerization of prostaglandin H2 synthase form 2, SDS-PAGE without β-mercaptoethanol and Western blot; type: biochemical, sheep; conditions: 450 μM peroxynitrite
Description: as §1

[4] = target: T2, prostaglandin H2 synthase form 1 (Ovis aries, UniProt P05979); test: Prostaglandin H2 synthase activity analysis by TLC ([14C]arachidonic acid conversion); type: biochemical, sheep; conditions: pretreated at 37° C. for 30 minutes; 25 μM [14C]arachidonic acid
T2 construct: sheep prostaglandin H2 synthases form 1 and 2 obtained from ram seminal vesicle and placenta, respectively; purchased Cayman Co. (Ann Arbor, Mich.); host or cells: ram seminal vesicle (tissue-purified)
T2 sequence (P05979 25-600): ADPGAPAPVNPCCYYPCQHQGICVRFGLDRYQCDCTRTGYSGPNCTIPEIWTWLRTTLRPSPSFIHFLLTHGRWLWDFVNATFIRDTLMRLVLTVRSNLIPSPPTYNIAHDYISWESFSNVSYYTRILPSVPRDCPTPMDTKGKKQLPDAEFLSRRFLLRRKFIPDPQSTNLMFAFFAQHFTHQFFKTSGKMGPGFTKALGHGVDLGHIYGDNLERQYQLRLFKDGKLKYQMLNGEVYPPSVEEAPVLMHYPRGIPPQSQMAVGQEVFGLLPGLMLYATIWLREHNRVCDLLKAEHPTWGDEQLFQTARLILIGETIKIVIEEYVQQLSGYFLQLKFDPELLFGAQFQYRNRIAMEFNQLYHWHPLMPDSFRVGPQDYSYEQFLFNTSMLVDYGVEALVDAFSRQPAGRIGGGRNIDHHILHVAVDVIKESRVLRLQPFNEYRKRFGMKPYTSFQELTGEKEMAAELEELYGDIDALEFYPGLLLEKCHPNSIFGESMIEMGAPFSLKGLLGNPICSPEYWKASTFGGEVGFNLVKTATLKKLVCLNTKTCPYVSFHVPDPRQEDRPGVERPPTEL
Description: (§2) Prostaglandin H2 synthase activity analysis of sheep prostaglandin H2 synthases form 1 and 2 obtained from ram seminal vesicle and placenta, respectively, were carried out as previously described (21) with or without pretreatment with peroxynitrite. Briefly, purified or partly purified sheep prostaglandin H2 synthases form 1 (9 units) and form 2 (12 units) were pretreated with or without peroxynitrite at 37° C. for 30 minutes. [^14C]arachidonic acid (AA) (25 μM) (NEN, specific activity 53 mCi/mmol) was added to the prostaglandin H2 synthase form 1 or form 2 in 0.2 ml of PBS, and incubated at 37° C. for 10 minutes. Prostaglandin H2 synthase metabolites in the medium were extracted with ethyl acetate, dried down in a centrifugal evaporator, spotted on a silica TLC plate and separated using A-9 solvent (ethyl acetate:trimethylpentane:acetic acid:water, 55:25:10:50). The TLC assay measured products resulting from both the cyclooxygenase and peroxidase activities of prostaglandin H2 synthase. The immediate product of the prostaglandin H2 synthase reaction, prostaglandin H2, was unstable and broke down in a non-enzymatic fashion to a variety of prostaglandins which were detectable by TLC. The Rf pattern in the A-9 solvent system of the break down products of prostaglandin H2 produced by ram seminal vesicle prostaglandin H2 synthase form 1 was well characterized. […]

[5] = target: T1, prostaglandin H2 synthase form 2; test: as above; type: biochemical, sheep; conditions: pretreated at 37° C. for 30 minutes; 25 μM [14C]arachidonic acid
Description: as §2

[6] = test system: cytochrome c; test: Nitration and polymerization of cytochrome c, SDS-PAGE and anti-nitrotyrosine Western blot; type: biochemical
Description: as §1
Cytochrome c (40 μg) was incubated with 0.5 mM (FIG. 1, Panel A, lane 1) […] deactivated (a negative control, FIG. 1, Panel A, lane 2) peroxynitrite in 100 mM phosphate buffer, pH 7.4. Deactivated peroxynitrite was produced by incubation of 0.5 mM peroxynitrite in buffer for 5 minutes prior to addition to the reaction mixture. […]
Cytochrome c (40 μg) was incubated with increasing concentrations (0.032 to 0.13 mM) (FIG. 1, Panel B) of peroxynitrite in 100 mM phosphate buffer, pH 7.4. […] The cytochrome c monomer band (14 kDa) shown in Western blot analysis in FIG. 1, Panel B and those obtained from two other experiments were quantitated using Molecular Dynamics Personal Densitometer (FIG. 1, Panel C).

SMILES: NCCN(CCN)/[N+]([O-])=N/O [DETA NONOate, diethylenetetraamine (DETA) NONOate]
- nitration and polymerization of cytochrome c [1]: nitrated and polymerized

- nitration of tyrosine residues of prostaglandin H2 synthase form 2 in the presence of reducing agent [2]: inhibited
- nitration of tyrosine residues of prostaglandin H2 synthase form 2 in the presence of reducing agent ([2]; listed as GSH): not nitrated
- dimerization of prostaglandin H2 synthase form 2 in the presence of reducing agent ([3]; 31 μM GSH, no β-mercaptoethanol in loading buffer): ran as a monomer
SMILES: N[C@@H](CCC(=O)N[C@@H](CS)C(=O)NCC(=O)O)C(=O)O [glutathione]

- nitration of tyrosine residues of prostaglandin H2 synthase form 2 by oxidant ([2]; 450 μM peroxynitrite, no GSH): increased
- catalytic activity of prostaglandin H2 synthase form 1 after treatment [4]: abolished
- catalytic activity of prostaglandin H2 synthase form 2 after treatment [5]: abolished
SMILES: O=NOO [peroxynitrite]
- dimerization of prostaglandin H2 synthase form 2 by oxidant ([3]; no GSH, no β-mercaptoethanol): migrated both as a monomer (70 kDa) and a dimer (140 kDa)
- nitration and polymerization of cytochrome c ([6]; 0.5 mM peroxynitrite, 100 mM phosphate buffer, pH 7.4): nitrated and polymerized to 30 kDa, 45 kDa and higher molecular mass
- concentration dependence of nitration and polymerization of cytochrome c ([6]; 0.032 to 0.13 mM peroxynitrite): nitrated and polymerized in a dose-dependent manner
